Tests used:
[1] = molecular target: T1, recombinant human chymase (Homo sapiens, UniProt P23946); assay: Chymase inhibition activity (fluorogenic substrate Suc-Ala-Ala-Pro-Phe-MCA); assay type: biochemical; conditions: 30° C., 30 minutes
T1 sequence (P23946 22-247): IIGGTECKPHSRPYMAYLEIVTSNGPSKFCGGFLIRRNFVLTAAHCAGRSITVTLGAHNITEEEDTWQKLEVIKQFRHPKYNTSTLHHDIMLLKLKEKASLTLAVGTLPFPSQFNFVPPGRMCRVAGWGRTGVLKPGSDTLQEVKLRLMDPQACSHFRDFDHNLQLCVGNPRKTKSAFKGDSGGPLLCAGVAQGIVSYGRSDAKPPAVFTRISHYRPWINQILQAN
Method: The chymase inhibition activity was measured according to the method of Kato et al. (J. Biochem., Vol.103, pp820(1988)). That is, 72.5 μL of a solution adjusted so that the enzyme activity of recombinant human chymase (JP-A No.10-87567) became 2.3 μUnit with HEPES buffer, was added to 2.5 μL of a test substance dissolved in dimethyl sulfoxide (DMSO), a temperature was retained at 30° C. for 5 minutes, and 125 μL of 0.6 mM Suc-Ala-Ala-Pro-Phe-MCA (manufactured by Peptide Institute Inc.)/Tris buffer as a substrate was added to obtain a reaction solution. The reaction solution was set at a multi-well plate reader CYTOFLUOR Series 4000 (manufactured by Perceptive Biosystems), and a change in the fluorescent intensity was measured at 30° C. for 30 minutes with time (excitation wavelength 360 nm, detection wavelength 450 nm).
As a control, 2.5 μL of DMSO containing no test substance was used, and this was treated and measured similarly. As a blank, a Tris hydrochloric acid buffer was added instead of a chymase solution, and treated and measured similarly.
The chymase inhibition rate (%) was obtained by calculating a slope (S) of an approximation straight line for each test substance, a slope (C) of an approximation straight line for a control, a slope (Bs) of an approximation straight line for a blank of each test substance, and a slope (Bc) of approximation straight line for a blank of a control from a change in the fluorescent intensity, and calculating from the following equation. Inhibition rate (%)=[1−(S−Bs)/(C−Bc)]×100
(§1) Regarding the compounds of the present invention, each 50% inhibition concentration (IC50) was calculated from the chymase and tryptase inhibition activity obtained by the aforementioned method.

human lung tryptase = assay: Tryptase inhibition activity (fluorogenic substrate Boc-Val-Pro-Arg-MCA); assay type: biochemical; conditions: pH7.1, 30° C., 30 minutes
Method: Then, the tryptase inhibition activity was measured according to the method of Muramatsu et al. (Biol. Chem. Hoppe-Seyler, vol.369, pp617(1988)). That is, 62.5 μL of a solution adjusted so that the enzyme activity of human lung tryptase (manufactured by Sigma) became 7.9 μUnit with 0.1M phosphate buffer-1.5M NaCl (pH7.1), was added to 2.5 μL of a test substance dissolved in DMSO, a temperature was retained at 30° C. for 5 minutes, and 125 μL of 0.6mM Boc-Val-Pro-Arg-MCA. HCl (manufactured by BACHEM)/0.1M phosphate buffer (pH7.1) as a substrate was added to obtain a reaction solution. The reaction solution was set at a multi-well plate reader CYTOFLUOR Series 4000 (manufactured by Perceptive Biosystems), and a change in the fluorescent intensity was measured at 30° C. for 30 minutes with time (excitation wavelength 360 nm, detection wavelength 450 nm). As a control, 2.5 μL of DMSO containing no test substance was used, and treated and measured similarly. As a blank, 0.1M phosphate buffer-1.5M NaCl (pH7.1) was added in place of a tryptase solution, and treated and measured similarly.
A tryptase inhibition rate (%) was obtained by calculating a slope (S) of an approximation straight line for each test material, a slope (C) of an approximation straight line for a control, a slope (Bs) of an approximation straight line for a blank of each test substance, and a slope (Bc) of an approximation straight line for a blank of a control from a change in the fluorescent intensity, and calculating from the following equation. Inhibition rate (%)=[1−(S−Bs)/(C−Bc)]×100 Experimental Results
as §1

[2] = tested on: rat mast cells (intraperitoneal cell suspension, PEC); assay: Rat mast cell histamine release inhibition test; assay type: cell-based; conditions: for Inhibition rate (%) of release of histamine from mast cells: phosphatidylserine and concanavalin A stimulated
Method: A rat was killed by exsanguinations under ether anesthesia, and 30 mL of a buffer for mast cells (150 mM NaCl, 3.7 mM KCl, 3.0 mM Na2HPO4, 1 mM CaCl2, 5.6 mM glucose) was injected intraperitoneally. An abdominal part was massaged for 90 seconds, and a suspension of intraperitoneal cell was taken. A suspension of an intraperitoneal cell collected from 5 animals was centrifuged at 100 G at 4° C. for 5 minutes, a buffer for mast cells was added, washed three times and, finally, adjusted so that the number of mast cells became 3 to 5×10^5 cells/mL (hereinafter, this solution is abbreviated as PEC).
Compound 5 was dissolved in DMSO to prepare a test drug solution at each concentration (final DMSO concentration 0.8%). 100 μL of the test drug solution was added to 400 μL of the prepared PEC, and pre-incubated at 37° C. for 15 minutes. After pre-incubation, each 50 μL of a solution of phosphatidylserine (10 μg/ml) and concanavalin A(15 μg/ml) which is a histamine-releasing substance was added, and further incubated for 20 minutes. 1.4 mL of an ice-cooled buffer for mast cells was added to stop the reaction, and centrifuged at 250 G at 4° C. for 10 minutes. An amount of the histamine supernatant was quantitated using a fluorescent method. That is, 20 μL of 1N NaOH was added to 40 μL of the supernatant, 20 μL of a 1% o-phthalaldehyde solution in methanol was further added, and allowed to stand at room temperature for 5 minutes. Thereafter, 20 μL of 3N hydrochloric acid was added, and the fluorescent intensity was measured at an excitation wavelength of 350 nm and a fluorescent wavelength of 450 nm to obtain an amount of histamine.
A histamine release inhibition rate (%) was calculated from the following equation: Inhibition rate (%)=[1−(S−B)/(C−B)]×100 • S: amount of histamine in the supernatant, C: amount of histamine in control, B: amount of histamine in blank Test Results

Compound | IC50 [1] | IC50 (human lung tryptase) | further results
1-(3-Chlorobenzyl)-5,5-dimethyl-3-naphthylcarbonylimidazolidine-2,4-dione [Compound 28] | 2.2 µM | 2.2 µM | –
1-Isobutyl-3-naphthylcarbonyl-5,5-diphenylimidazolidine -2,4-dione [Compound 23] | 0.28 µM | 4.4 µM | –
1-Methyl-3-naphthylcarbonyl-5,5-diphenylimidazolidine-2,4-dione [Compound 22] | 3.5 µM | 0.089 µM | –
3-Naphthylcarbonyl-1,3-diazaspiro[4.5]decane-2,4-dione [Compound 34] | 32 µM | 0.28 µM | –
3-Naphthylcarbonyl-2,4-dioxo-5,5-diphenylimidazolidinylacetic acid [Compound 5] | 1.2 µM | 0.97 µM | Inhibition of release of histamine (in words) ([2]; 8 to 100 μM): inhibited release of histamine concentration-dependently; Inhibition rate (%) of release of histamine from mast cells ([2]; test drug concentration 8 μM): 28%; Inhibition rate (%) of release of histamine from mast cells ([2]; test drug concentration 40 μM): 59%; Inhibition rate (%) of release of histamine from mast cells ([2]; test drug concentration 80 μM): 78%; Inhibition rate (%) of release of histamine from mast cells ([2]; test drug concentration 100 μM): 83%
3-Naphthylcarbonyl-5,5-diphenylimidazolidine-2,4-dione [Compound 2] | 0.34 µM | 0.046 µM | –
4-(5,5-Dimethyl-3-naphthylcarbonyl-2,4-dioxoimidazolidinylmethyl)benzonitrile [Compound 27] | 0.54 µM | 7.1 µM | –
5,5- Dimethyl-3-naphthylcarbonylimidazolidine-2,4-dione [Compound 8] | 30 µM | 3.2 µM | –
5,5-Dimethyl-1,3-bisnaphthylcarbonyl imidazolidine-2,4-dione [Compound 33] | 1.8 µM | 1.5 µM | –
5,5-Dimethyl-3-naphthylcarbonyl-1,3-oxazolidine-2,4-dione [Compound 9] | 0.73 µM | 1 µM | –
5,5-Dimethyl-3-naphthylcarbonyl-1-(2-oxo-2-phenylethyl)imidazolidine-2,4-dione [Compound 30] | 3.3 µM | 7.2 µM | –
5-Methyl-3-naphthylcarbonyl-2,4-dioxo-5-phenylimidazolidinylacetic acid [Compound 16] | 0.91 µM | 1.8 µM | –
O=C1NC(c2ccccc2)(c2ccccc2)C(=O)N1C(=O)c1ccc2ccccc2c1 [Compound 1, 3-(2-Naphthylcarbonyl)-5,5-diphenylimidazolidine-2,4-dione] | 0.066 µM | 0.39 µM | –
CC1(c2ccccc2)NC(=O)N(C(=O)c2cccc3ccccc23)C1=O (centres unmarked) [Compound 7] | 6.5 µM | 0.37 µM | –
CC1(c2ccccc2)C(=O)N(C(=O)c2cccc3ccccc23)C(=O)N1Cc1cccc(Cl)c1 (centres unmarked) [Compound 25, 1-(3-Chlorobenzyl)-5-methyl-3-naphthylcarbonyl-5-phenylimidazolidine-2,4-dione] | 0.58 µM | 86 µM | –
Ethyl 2-(3-naphthylcarbonyl-2,4-dioxo-5,5-diphenylimidazolidinyl)acetate [Compound 3] | 1 µM | 0.93 µM | –
Tert-butyl (5,5-dimethyl-3-naphthylcarbonyl-2,4-dioxoimidazolidinyl)acetate [Compound 13] | 2.7 µM | 1.6 µM | –
tert-Butyl (5-methyl-3-naphthylcarbonyl-2,4-dioxo-5-phenylimidazolidinyl)acetate [Compound 14] | 0.26 µM | 1.6 µM | –

— patent publication US6919365B2, “Imidazolidinedione derivatives and use thereof as drugs” (Senju Pharmaceutical Co., Ltd., priority 2001, dated 2005)
